Reference: PubChem BioAssay (NCI)
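Tested at 5 concentrations; 48 h exposure; 96-well plates; endpoints linearly interpolated, else capped at highest concentration. GI50 marks 50% less growth. TGI: concentration producing complete growth inhibition.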

How the values were obtained:
Test in all cases: NCI tumour cell line growth inhibition, 48 h
SK-MEL-5 melanoma = test system: SK-MEL-5 melanoma
MCF7 breast = test system: MCF7 breast
OVCAR-3 ovarian = test system: OVCAR-3 ovarian
SN12C renal = test system: SN12C renal
U251 CNS = test system: U251 CNS
ACHN renal = test system: ACHN renal
MDA-MB-231 breast = test system: MDA-MB-231 breast
T-47D breast = test system: T-47D breast
OVCAR-8 ovarian = test system: OVCAR-8 ovarian
UO-31 renal = test system: UO-31 renal
RPMI-8226 leukemia = test system: RPMI-8226 leukemia
SNB-19 CNS = test system: SNB-19 CNS
TK-10 renal = test system: TK-10 renal
UACC-257 melanoma = test system: UACC-257 melanoma
HCC-2998 colon = test system: HCC-2998 colon
HT29 colon = test system: HT29 colon
RXF 393 renal = test system: RXF 393 renal
HOP-62 NSCLC = test system: HOP-62 NSCLC
SK-MEL-28 melanoma = test system: SK-MEL-28 melanoma
IGROV1 ovarian = test system: IGROV1 ovarian
HS 578T breast = test system: HS 578T breast
OVCAR-5 ovarian = test system: OVCAR-5 ovarian
OVCAR-4 ovarian = test system: OVCAR-4 ovarian
DU-145 prostate = test system: DU-145 prostate
A549 NSCLC = test system: A549 NSCLC
MALME-3M melanoma = test system: MALME-3M melanoma
NCI-H522 lung = test system: NCI-H522 lung
786-0 renal = test system: 786-0 renal

SMILES: CCCCC(OC(=O)c1ccc(N)cc1)C(=O)Nc1nc(CC(=O)OCC)cs1 (stereo not given)
- GI50 (SK-MEL-5 melanoma): 17.8 µM
- TGI (SK-MEL-5 melanoma): 34.5 µM
- GI50 (MCF7 breast): 34.8 µM
- TGI (MCF7 breast): > 100 µM
- GI50 (OVCAR-3 ovarian): 23.5 µM
- TGI (OVCAR-3 ovarian): 82 µM
- GI50 (SN12C renal): 41.6 µM
- TGI (SN12C renal): > 100 µM
- GI50 (U251 CNS): 44.6 µM
- TGI (U251 CNS): > 100 µM
- GI50 (ACHN renal): 38.8 µM
- TGI (ACHN renal): > 100 µM
- GI50 (MDA-MB-231 breast): 28.1 µM
- TGI (MDA-MB-231 breast): > 100 µM
- GI50 (T-47D breast): 38.7 µM
- TGI (T-47D breast): > 100 µM
- GI50 (OVCAR-8 ovarian): 40.4 µM
- TGI (OVCAR-8 ovarian): > 100 µM
- GI50 (UO-31 renal): 40.9 µM
- TGI (UO-31 renal): > 100 µM
- GI50 (RPMI-8226 leukemia): 26.7 µM
- TGI (RPMI-8226 leukemia): > 100 µM
- GI50 (SNB-19 CNS): 49.9 µM
- TGI (SNB-19 CNS): > 100 µM
- GI50 (TK-10 renal): 40 µM
- TGI (TK-10 renal): > 100 µM
- GI50 (UACC-257 melanoma): 42.8 µM
- TGI (UACC-257 melanoma): > 100 µM
- GI50 (HCC-2998 colon): 67.5 µM
- TGI (HCC-2998 colon): > 100 µM
- GI50 (HT29 colon): 36.7 µM
- TGI (HT29 colon): > 100 µM
- GI50 (RXF 393 renal): 38.1 µM
- TGI (RXF 393 renal): > 100 µM
- GI50 (HOP-62 NSCLC): 56.5 µM
- TGI (HOP-62 NSCLC): > 100 µM
- GI50 (SK-MEL-28 melanoma): 42.2 µM
- TGI (SK-MEL-28 melanoma): > 100 µM
- GI50 (IGROV1 ovarian): 51 µM
- TGI (IGROV1 ovarian): > 100 µM
- GI50 (HS 578T breast): 43.4 µM
- TGI (HS 578T breast): > 100 µM
- GI50 (OVCAR-5 ovarian): > 100 µM
- TGI (OVCAR-5 ovarian): > 100 µM
- GI50 (OVCAR-4 ovarian): 29.8 µM
- TGI (OVCAR-4 ovarian): > 100 µM
- GI50 (DU-145 prostate): 36 µM
- TGI (DU-145 prostate): > 100 µM
- GI50 (A549 NSCLC): 37.5 µM
- TGI (A549 NSCLC): > 100 µM
- GI50 (MALME-3M melanoma): 30.1 µM
- TGI (MALME-3M melanoma): > 100 µM
- GI50 (NCI-H522 lung): 33.9 µM
- TGI (NCI-H522 lung): > 100 µM
- GI50 (786-0 renal): 53.6 µM
